Data reported in patent US9604998B2, “Inhibitors of the renal outer medullary potassium channel” (MERCK SHARP & DOHME CORP., priority 2013, dated 2017).
Where a name gives a salt, the structure may show the parent alone.

Legend:
hROMK (hKir1.1) = hROMK (hKir1.1) (Homo sapiens (Human), UniProt P48048); assay: Thallium Flux Assay (ROMK channel functional thallium flux, FLIPR-Tetra); assay type: cell-based; details: HEK293 cells stably expressing hROMK (hKir1.1); read-out: Thallium Flux IC50
Protocol: HEK293 cells stably expressing hROMK (hKir1.1) were grown at 37° C. in a 10% CO2 humidified incubator in complete growth media: Dulbecco's Modified Eagle Medium supplemented with non-essential amino acids, Penicillin/Streptomycin/Glutamine, G418 and FBS. At >80% confluency, aspirate the media from the flask and rinse with 10 mL Calcium/Magnesium-free PBS. […] To dislodge the cell, gently bang the side of the flask with your hand. Triturate the cells completely and then transfer the cells to 25 mL complete media. Centrifuge at 1,500 rpm for 6 min followed by resuspension in complete growth media and determine cell concentration.
Compound Buffer (per microplate): 20 mL Probenecid/Assay Buffer; 0.3 mM ouabain (10 mM ouabain in water can be stored in amber bottle/aluminum foil at room temperature); Test compound
Stimulant Buffer (prepared at 5× final concentration in 1× FluxOR™ Chloride-Free Buffer): 7.5 mM Thallium sulfate and […] (to give a final assay concentration of 3 mM Thallium/0.3 mM Potassium). Store at 4° C. when not in use. If kept sterile, this solution is good for months.
The ROMK channel functional thallium flux assay is performed in 384 wells, using the FLIPR-Tetra instrument. HEK-hKir1.1 cells are seeded in Poly-D-Lysine microplates and kept in a 37° C.-10% CO2 incubator overnight. On the day of the experiment, the growth media is replaced with the FluxOR™ reagent loading buffer and incubated, protected from light, at ambient temperature (23-25° C.) for 90 min. The loading buffer is replaced with assay buffer±test compound followed by 30 min incubation at ambient temperature, where the Thallium/Potassium stimulant is added to the microplate.
1. Seed HEK-hKir1.1 cells (50 μl at 20,000 cells/well) in 384-well PDL coated Microplates
2. Allow cells to adhere overnight in humidified 37° C./10% CO2 incubator
3. Completely remove cell growth media from microplate and replace with 25 μl loading buffer
4. Incubate Microplate at room temperature, protected form light, for 90 min
5. Remove loading buffer and replace with 25 μl 1× Assay Buffer±test compound.
6. Incubate microplate at room temperature, protected from light, for 30 min
7. […] Excitation=400 nm, Emission=460 & 580 nm. Collect data for ˜10 min.
The fluorescence intensity of wells containing 3 μM of a standard control ROMK inhibitor of the present invention is used to define the ROMK-sensitive component of thallium flux. Fluorescence in the presence of test compounds is normalized to control values to provide % fluorescence change.

Kir1.1 (ROMK1) = Kir1.1 (ROMK1) (Homo sapiens (Human), UniProt P48048); assay: Electrophysiology Assay (whole cell voltage clamp, IonWorks Quattro); assay type: cell-based; details: Chinese hamster ovary cells stably expressing Kir1.1; block during voltage step to 0 mV; read-out: Electrophysiology IC50
Kir1.1 (ROMK1), sequence (P48048 whole entry, species assumed): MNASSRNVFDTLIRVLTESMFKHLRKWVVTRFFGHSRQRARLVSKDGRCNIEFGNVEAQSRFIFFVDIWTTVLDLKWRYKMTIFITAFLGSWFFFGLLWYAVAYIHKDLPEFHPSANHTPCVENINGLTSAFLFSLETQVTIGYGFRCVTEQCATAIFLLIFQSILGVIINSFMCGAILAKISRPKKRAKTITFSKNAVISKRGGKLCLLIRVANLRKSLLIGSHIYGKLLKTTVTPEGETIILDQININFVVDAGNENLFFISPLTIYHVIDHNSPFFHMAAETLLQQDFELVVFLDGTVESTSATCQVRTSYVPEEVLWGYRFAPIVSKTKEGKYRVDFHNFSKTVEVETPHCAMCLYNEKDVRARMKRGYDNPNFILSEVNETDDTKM
Protocol: Chinese hamster ovary cells stably expressing Kir1.1 channels were maintained in T-75 flasks in cell culture media in a humidified 10% CO2 incubator at 37° C. Prior to an experiment, Kir1.1 expression was induced by overnight incubation with 1 mM sodium butyrate. […] After centrifugation, the cell pellet was resuspended in approximately 4.0 mL of bath solution and placed in the IonWorks instrument. The intracellular solution consisted of (in mM): 80 K gluconate, 40 KCl, 20 KF, 3.2 MgCl2, 3 EGTA, 5 Hepes, pH 7.4. Electrical access to the cytoplasm was achieved by perforation in 0.13 mg/mL amphotericin B for 4 min. […] Voltage protocols and current recordings were performed using the IonWorks HT software/hardware system. Currents were sampled at 1 kHz. No correction for liquid junction potentials was used. The test pulse, consisting of a 100 ms step to 0 mV from a holding potential of −70 mV, followed by a 100 ms voltage ramp from −70 mV to +70 mV, was applied before and after a 6 min compound incubation period. Test compounds were prepared by diluting DMSO stock solutions into the bath solution at 3× the final concentration and placed in the instrument in 96-well polypropylene plates. Current amplitudes were measured using the IonWorks software.

hROMK (hKir1.1), sequence (P48048 whole entry): as the sequence (P48048 whole entry, species assumed) above

SMILES | IC50 (hROMK (hKir1.1)) [nM] | IC50 (Kir1.1 (ROMK1)) [nM]
Cc1c([C@@H]2CN3CCN(CC(O)c4ccc5c(c4)C[C@H](C)OC5=O)C[C@H]3CO2)ccc2c1COC2=O (single isomer, unassigned) [Example 45] | 470 | 120
Cc1c([C@@H]2CN3CCN(CC(O)c4ccc5c(c4)C[C@@H](C)OC5=O)C[C@H]3CO2)ccc2c1COC2=O (single isomer, unassigned) [Example 46] | 280 | 110
COc1cc(C(O)CN2CCN3C[C@@H](c4ccc5c(c4C)COC5=O)OC[C@@H]3C2)ccc1C#N (single isomer, unassigned) [Example 47] | 250 | 190
Cc1c([C@@H]2CN3CCN(CC(O)c4cc(F)c(C#N)c(F)c4)C[C@H]3CO2)ccc2c1COC2=O (single isomer, unassigned) [Example 49] | 250 | 50
Cc1c([C@@H]2CN3CCN(CC(O)c4ccc5c(c4C4CC4)COC5=O)C[C@H]3CO2)ccc2c1COC2=O (single isomer, unassigned) [Example 50] | 440 | 250
Cc1c([C@@H]2CN3CCN(CC(O)c4ccc5c(c4C4CC4)COC5=O)C[C@H]3CO2)ccc2c1COC2=O (single isomer, unassigned) [Example 51] | 400 | 230
COc1cc(C(O)CN2CCN3C[C@@H](c4ccc5c(c4C)COC5=O)OC[C@@H]3C2)cc(F)c1C#N (single isomer, unassigned) [Example 54] | 340 | 170
COc1cc([C@H]2CN3CCN(C[C@H](O)c4ccc5c(c4C)COC5=O)C[C@@H]3CO2)ccc1C#N [Example 1, 4-{(3S,9aR)-8-[(2R)-2-hydroxy-2-(4-methyl-1-oxo-1,3-dihydro-2-benzofuran-5-yl)ethyl]octahydropyrazino[2,1-c][1,4]oxazin-3-yl}-2-methoxybenzonitrile] | 220 | 110
Cc1c([C@H](O)CN2CCN3C[C@@H](c4ccc5c(c4C)COC5=O)OC[C@@H]3C2)ccc2c1COC2=O [Example 2, 5-((S)-1-hydroxy-2-((3R,9aS)-3-(4-methyl-1-oxo-1,3-dihydroisobenzofuran-5-yl)hexahydropyrazino[2,1-c][1,4]oxazin-8(1H)-yl)ethyl)-4-methylisobenzofuran-1(3H)-one] | 230 | 80
Cc1c([C@@H]2CN3CCN(C[C@H](O)c4ccc5c(c4C)COC5=O)C[C@H]3CO2)ccc2c1COC2=O [Example 3, 5-((R)-1-hydroxy-2-((3R,9aS)-3-(4-methyl-1-oxo-1,3-dihydroisobenzofuran-5-yl)hexahydropyrazino[2,1-c][1,4]oxazin-8(1H)-yl)ethyl)-4-methylisobenzofuran-1(3H)-one] | 120 | 50
COc1cc([C@H]2CN3CCN(CC(O)c4ccc5c(c4C)COC5=O)C[C@H]3CO2)ccc1C#N (stereo partly drawn) [Example 4, (3S,9aS)-3-(4-cyano-3-methoxyphenyl)-8-[2-hydroxy-2-(4-methyl-1-oxo-1,3-dihydro-2-benzofuran-5-yl)ethyl]octahydropyrazino[2,1-c][1,4]oxazin-5-ium chloride] | 430 | 80
COc1cc(C(O)CN2CCN3C[C@@H](c4ccc5c(c4)COC5=O)OC[C@@H]3C2)c(Cl)cc1C#N (stereo partly drawn) [Example 10, (3R,9aS)-8-[2-(2-chloro-4-cyano-5-methoxyphenyl)-2-hydroxyethyl]-3-(1-oxo-1,3-dihydro-2-benzofuran-5-yl)octahydropyrazino[2,1-c][1,4]oxazin-5-ium trifluoroacetate] | 550 | 130
Cc1c([C@@H](O)CN2CCN3C[C@@H](c4ccc5c(c4)COC5=O)OC[C@@H]3C2)ccc2c1COC2=O [Example 11, (3R,9aS)-8-[(2R)-2-hydroxy-2-(4-methyl-1-oxo-1,3-dihydro-2-benzofuran-5-yl)ethyl]-3-(1-oxo-1,3-dihydro-2-benzofuran-5-yl)octahydropyrazino[2,1-c][1,4]oxazin-5-ium trifluoroacetatep] | 360 | 60
Cc1c([C@H](O)CN2CCN3C[C@@H](c4ccc5c(c4)COC5=O)OC[C@@H]3C2)ccc2c1COC2=O [Example 12, (3R,9aS)-8-[(2S)-2-hydroxy-2-(4-methyl-1-oxo-1,3-dihydro-2-benzofuran-5-yl)ethyl]-3-(1-oxo-1,3-dihydro-2-benzofuran-5-yl)octahydropyrazino[2,1-c][1,4]oxazin-5-ium chloride] | 190 | 30
Cc1c(C(O)CN2CCN3C[C@@H](c4ccc5c(c4C)COC5=O)OC[C@@H]3C2)ccc(F)c1C#N (stereo partly drawn) [Example 13, (3R,9aS)-8-[2-(3-cyano-4-fluoro-2-methylphenyl)-2-hydroxyethyl]-3-(4-methyl-1-oxo-1,3-dihydro-2-benzofuran-5-yl)octahydropyrazino[2,1-c][1,4]oxazin-5-ium trifluoroacetate] | 270 | 220
COc1cc([C@H]2CN3CCN(CC(O)c4cc(OC)c(C#N)cc4F)C[C@@H]3CO2)ccc1C#N (stereo partly drawn) [Example 14, (3S,9aR)-8-[2-(4-cyano-2-fluoro-5-methoxyphenyl)-2-hydroxyethyl]-3-(4-cyano-3-methoxyphenyl)octahydropyrazino[2,1-c][1,4]oxazin-5-ium chloride] | 580 | 270
COc1cc(C(O)CN2CCN3C[C@@H](c4ccc5c(c4C)COC5=O)OC[C@@H]3C2)c(F)cc1C#N (stereo partly drawn) [Example 15, (3R,9aS)-8-[2-(4-cyano-2-fluoro-5-methoxyphenyl)-2-hydroxyethyl]-3-(4-methyl-1-oxo-1,3-dihydro-2-benzofuran-5-yl)octahydropyrazino[2,1-c][1,4]oxazin-5-ium chloride] | 670 | 290
Cc1c([C@@H](O)CN2CCN3C[C@H](c4ccc(C#N)c(F)c4)OC[C@H]3C2)ccc2c1COC2=O [Example 28, (3S,9aR)-3-(4-cyano-3-fluorophenyl)-8-[(2R)-2-hydroxy-2-(4-methyl-1-oxo-1,3-dihydro-2-benzofuran-5-yl)ethyl]octahydropyrazino[2,1-c][1,4]oxazin-8-ium chloride] | 190 | 90
Cc1c([C@@H](O)CN2CCN3C[C@@H](c4ccc(C#N)c(F)c4)OC[C@H]3C2)ccc2c1COC2=O [Example 29, (3R,9aR)-3-(4-cyano-3-fluorophenyl)-8-[(2R)-2-hydroxy-2-(4-methyl-1-oxo-1,3-dihydro-2-benzofuran-5-yl)ethyl]octahydropyrazino[2,1-c][1,4]oxazin-8-ium chloride] | 490 | 80
COc1c([C@@H]2CN3CCN(C[C@H](O)c4ccc5c(c4C)COC5=O)C[C@@H]3CO2)ccc(C#N)c1F [Example 32, (3R,9aR)-3-(4-cyano-3-fluoro-2-methoxyphenyl)-8-[(2R)-2-hydroxy-2-(4-methyl-1-oxo-1,3-dihydro-2-benzofuran-5-yl)ethyl]octahydropyrazino[2,1-c][1,4]oxazin-8-ium chloride] | 280 | 180
COc1cc(C(O)CN2CCN3C[C@H](c4ccc5c(c4C)COC5=O)OC[C@H]3C2)c(F)cc1C#N (stereo partly drawn) [Example 36, (3S,9aR)-8-[2-(4-cyano-2-fluoro-5-methoxyphenyl)-2-hydroxyethyl]-3-(4-methyl-1-oxo-1,3-dihydro-2-benzofuran-5-yl)octahydropyrazino[2,1-c][1,4]oxazin-5-ium chloride] | 390 | 120
